From article PMC3704224 (Analytical chemistry, 2013)

Columns and labels:
PTPN1 = conditions: read-out: IC50, PTPN1 inhibition (previous reports); cited from earlier work
[1] = test system: PTP activity in single A431 cells; assay: Single A431 cell PTP activity; type: cell-based, human; conditions: single A431 cells pretreated with 1 mM; Q1 = 36%, Q3 = 77%
PTPN2 = conditions: read-out: KM for PTPN2; cited from earlier work

Molecule | IC50 (PTPN1) | median phosphorylation remaining in 60 s (inhibition of dephosphorylation) [1] | Km (PTPN2)
O=C1C=Cc2ccccc2C1=O [1,2-naphthoquinone] | 1.6 to 5 µM | – | –
sodium pervanadate | 0.4 µM | 53% | –
N[C@@H](Cc1ccc(OP(=O)(O)O)cc1)C(=O)O [phosphotyrosine] | – | – | 300 µM
